Reference: PubChem BioAssay AID248 (DTP/NCI, 2004)
Where “and” joins values, the source holds several entries; their conditions need not be identical. Equal entries are not always repeated. Inconclusive results and toxic doses are left out.

Test system: L1210 leukemia ip in BDF1 mice, survival T/C
Experiment: NCI In Vivo Anticancer Drug Screen. Data for tumor model L1210 Leukemia (intraperitoneal) in B6D2F1 (BDF1) mice
Settings: higher = longer survival
How it was run: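 Read-out is survival time, reported as the treated-group measurement over the vehicle-control measurement.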

[1] = endpoint: mean survival time, dose: 6.25 mg/kg/injection, schedule: Q01DX009 (ip), vehicle: saline
[2] = endpoint: mean survival time, dose: 12.5 mg/kg/injection, schedule: Q01DX009 (ip), vehicle: saline
[3] = endpoint: mean survival time, dose: 50.0 mg/kg/injection, schedule: Q01DX001 (ip), vehicle: saline
[4] = endpoint: mean survival time, dose: 100.0 mg/kg/injection, schedule: Q01DX001 (ip), vehicle: saline
[5] = endpoint: mean survival time, dose: 100.0 mg/kg/injection, schedule: Q04DX003 (ip), vehicle: saline
[6] = endpoint: mean survival time, dose: 200.0 mg/kg/injection, schedule: Q01DX001 (ip), vehicle: saline
[7] = endpoint: mean survival time, dose: 200.0 mg/kg/injection, schedule: Q04DX003 (ip), vehicle: saline
[8] = endpoint: mean survival time, dose: 400.0 mg/kg/injection, schedule: Q01DX001 (ip), vehicle: saline

S=P(N1CC1)(N1CC1)N1CC1 was tested, and the T/C (endpoint: mean survival time, dose: 0.19 mg/kg/injection, schedule: Q01DX009 (ip), vehicle: saline) was 103 % of control and 104 % of control, the T/C (endpoint: mean survival time, dose: 0.3 mg/kg/injection, schedule: Q01DX Z (ip), vehicle: carboxymethylcellulose (CMC)) was 106 % of control and the T/C (endpoint: mean survival time, dose: 0.38 mg/kg/injection, schedule: Q01DX009 (ip), vehicle: saline) was 104 % of control and 111 % of control. For the same molecule, the T/C (endpoint: mean survival time, dose: 0.6 mg/kg/injection, schedule: Q01DX Z (ip), vehicle: carboxymethylcellulose (CMC)) was 101 % of control, the T/C (endpoint: mean survival time, dose: 0.75 mg/kg/injection, schedule: Q01DX009 (ip), vehicle: saline) was 107 % of control and 120 % of control and the T/C (endpoint: mean survival time, dose: 1.0 mg/kg/injection, schedule: Q01DX001 (ip), vehicle: saline) was 95 % of control (2×) and 119 % of control. For the same molecule, the T/C (endpoint: mean survival time, dose: 1.0 mg/kg/injection, schedule: Q01DX001 (oral), vehicle: saline) was 98 % of control and 105 % of control, the T/C (endpoint: mean survival time, dose: 1.0 mg/kg/injection, schedule: Q01DX009 (ip), vehicle: saline) was 98 % of control and 119 % of control and the T/C (endpoint: mean survival time, dose: 1.0 mg/kg/injection, schedule: Q04DX002 (ip), vehicle: saline) was 102 % of control and 121 % of control. For the same molecule, the T/C (endpoint: mean survival time, dose: 1.0 mg/kg/injection, schedule: Q04DX003 (ip), vehicle: saline) was 96 % of control and 104 % of control and 116 % of control, the T/C (endpoint: mean survival time, dose: 1.2 mg/kg/injection, schedule: Q01DX Z (ip), vehicle: carboxymethylcellulose (CMC)) was 109 % of control and the T/C (endpoint: mean survival time, dose: 1.25 mg/kg/injection, schedule: Q01DX Z (ip), vehicle: saline) was 118 % of control. The T/C (endpoint: mean survival time, dose: 1.5 mg/kg/injection, schedule: Q01DX010 (oral), vehicle: carboxymethylcellulose (CMC)) was 113 % of control, the T/C (endpoint: mean survival time, dose: 1.56 mg/kg/injection, schedule: Q01DX009 (ip), vehicle: saline) was 102 % of control and 117 % of control and the T/C (endpoint: mean survival time, dose: 1.65 mg/kg/injection, schedule: Q01DX001 (ip), vehicle: saline) was 104 % of control. For the same molecule, the T/C (endpoint: mean survival time, dose: 2.0 mg/kg/injection, schedule: Q01DX001 (ip), vehicle: saline) was 97 % of control and 103 % of control and 114 % of control, the T/C (endpoint: mean survival time, dose: 2.0 mg/kg/injection, schedule: Q01DX001 (oral), vehicle: saline) was 98 % of control and 102 % of control and the T/C (endpoint: mean survival time, dose: 2.0 mg/kg/injection, schedule: Q01DX009 (ip), vehicle: saline) was 108 % of control. The T/C (endpoint: mean survival time, dose: 2.0 mg/kg/injection, schedule: Q04DX002 (ip), vehicle: saline) was 101 % of control and 107 % of control, the T/C (endpoint: mean survival time, dose: 2.0 mg/kg/injection, schedule: Q04DX003 (ip), vehicle: saline) was 102 % of control and 109 % of control and 116 % of control and the T/C (endpoint: mean survival time, dose: 2.4 mg/kg/injection, schedule: Q01DX Z (ip), vehicle: carboxymethylcellulose (CMC)) was 121 % of control and 123 % of control. For the same molecule, the T/C (endpoint: mean survival time, dose: 2.5 mg/kg/injection, schedule: Q01DX001 (ip), vehicle: saline) was 110 % of control, the T/C (endpoint: mean survival time, dose: 2.5 mg/kg/injection, schedule: Q01DX Z (ip), vehicle: saline) was 120 % of control and the T/C (endpoint: mean survival time, dose: 3.0 mg/kg/injection, schedule: Q01DX001 (ip), vehicle: saline) was 106 % of control. The T/C (endpoint: mean survival time, dose: 3.0 mg/kg/injection, schedule: Q01DX010 (oral), vehicle: carboxymethylcellulose (CMC)) was 115 % of control, the T/C (endpoint: mean survival time, dose: 3.6 mg/kg/injection, schedule: Q01DX Z (ip), vehicle: carboxymethylcellulose (CMC)) was 118 % of control and the T/C (endpoint: mean survival time, dose: 3.8 mg/kg/injection, schedule: Q01DX001 (ip), vehicle: saline) was 110 % of control. The T/C (endpoint: mean survival time, dose: 4.0 mg/kg/injection, schedule: Q01DX001 (ip), vehicle: saline) was 97 % of control and 106 % of control and 111 % of control, the T/C (endpoint: mean survival time, dose: 4.0 mg/kg/injection, schedule: Q01DX001 (oral), vehicle: saline) was 101 % of control and 105 % of control and the T/C (endpoint: mean survival time, dose: 4.0 mg/kg/injection, schedule: Q01DX009 (ip), vehicle: saline) was 160 % of control and 161 % of control and 191 % of control. The T/C (endpoint: mean survival time, dose: 5.0 mg/kg/injection, schedule: Q01DX Z (ip), vehicle: saline) was 102 % of control, the T/C (endpoint: mean survival time, dose: 5.7 mg/kg/injection, schedule: Q01DX001 (ip), vehicle: saline) was 111 % of control and the T/C (endpoint: mean survival time, dose: 6.0 mg/kg/injection, schedule: Q01DX001 (ip), vehicle: saline) was 113 % of control and 123 % of control. The T/C [1] was 178 % of control, the T/C (endpoint: mean survival time, dose: 7.5 mg/kg/injection, schedule: Q01DX001 (ip), vehicle: saline) was 106 % of control and 118 % of control and the T/C (endpoint: mean survival time, dose: 8.0 mg/kg/injection, schedule: Q01DX001 (oral), vehicle: saline) was 105 % of control and 117 % of control. The T/C (endpoint: mean survival time, dose: 8.0 mg/kg/injection, schedule: Q01DX009 (ip), vehicle: saline) was 107 % of control and 113 % of control, the T/C (endpoint: mean survival time, dose: 8.0 mg/kg/injection, schedule: Q04DX003 (ip), vehicle: saline) was 150 % of control and 179 % of control and the T/C (endpoint: mean survival time, dose: 8.7 mg/kg/injection, schedule: Q01DX001 (ip), vehicle: saline) was 161 % of control. For the same molecule, the T/C (endpoint: mean survival time, dose: 11.0 mg/kg/injection, schedule: Q01DX001 (ip), vehicle: saline) was 122 % of control, the T/C (endpoint: mean survival time, dose: 12.0 mg/kg/injection, schedule: Q01DX009 (ip), vehicle: saline) was 95 % of control and 100 % of control and the T/C (endpoint: mean survival time, dose: 12.0 mg/kg/injection, schedule: Q01DX010 (oral), vehicle: carboxymethylcellulose (CMC)) was 166 % of control. For the same molecule, the T/C [2] was 118 % of control, the T/C (endpoint: mean survival time, dose: 14.0 mg/kg/injection, schedule: Q01DX001 (ip), vehicle: saline) was 109 % of control and the T/C (endpoint: mean survival time, dose: 15.0 mg/kg/injection, schedule: Q01DX001 (ip), vehicle: saline) was 163 % of control and 201 % of control. For the same molecule, the T/C (endpoint: mean survival time, dose: 16.0 mg/kg/injection, schedule: Q01DX001 (oral), vehicle: saline) was 121 % of control, the T/C (endpoint: mean survival time, dose: 16.0 mg/kg/injection, schedule: Q04DX003 (ip), vehicle: saline) was 104 % of control and the T/C (endpoint: mean survival time, dose: 17.0 mg/kg/injection, schedule: Q01DX001 (ip), vehicle: saline) was 152 % of control and 155 % of control and 163 % of control. The T/C (endpoint: mean survival time, dose: 20.0 mg/kg/injection, schedule: Q01DX001 (ip), vehicle: saline) was 163 % of control, the T/C (endpoint: mean survival time, dose: 22.0 mg/kg/injection, schedule: Q01DX001 (ip), vehicle: saline) was 191 % of control and the T/C (endpoint: mean survival time, dose: 23.0 mg/kg/injection, schedule: Q01DX001 (ip), vehicle: saline) was 150 % of control. For the same molecule, the T/C (endpoint: mean survival time, dose: 24.0 mg/kg/injection, schedule: Q01DX010 (oral), vehicle: carboxymethylcellulose (CMC)) was 152 % of control, the T/C (endpoint: mean survival time, dose: 32.0 mg/kg/injection, schedule: Q04DX002 (ip), vehicle: saline) was 94 % of control and the T/C (endpoint: median survival time, dose: 1.5 mg/kg/injection, schedule: Q01DX009 (ip), vehicle: distilled water + alcohol) was 103 % of control. The T/C (endpoint: median survival time, dose: 1.5 mg/kg/injection, schedule: Q01DX009 (ip), vehicle: other) was 94 % of control, the T/C (endpoint: median survival time, dose: 4.0 mg/kg/injection, schedule: Q01DX009 (ip), vehicle: water) was 151 % of control and the T/C (endpoint: median survival time, dose: 5.0 mg/kg/injection, schedule: Q01DX009 (ip), vehicle: water) was 108 % of control. For the same molecule, the T/C (endpoint: median survival time, dose: 6.0 mg/kg/injection, schedule: Q01DX009 (ip), vehicle: water) was 110 % of control.
In the case of CNC(=O)c1ccc(NC(=O)Nc2ccc(C3=NCCN3)cc2)cc1NC(=O)Nc1ccc(C2=NCCN2)cc1, the T/C (endpoint: mean survival time, dose: 2.0 mg/kg/injection, schedule: Q01DX Z (ip), vehicle: carboxymethylcellulose (CMC)) was 96 % of control, the T/C (endpoint: mean survival time, dose: 4.0 mg/kg/injection, schedule: Q01DX Z (ip), vehicle: carboxymethylcellulose (CMC)) was 112 % of control and the T/C (endpoint: mean survival time, dose: 17.0 mg/kg/injection, schedule: Q01DX Z (ip), vehicle: carboxymethylcellulose (CMC)) was 209 % of control and 351 % of control. The T/C (endpoint: mean survival time, dose: 27.0 mg/kg/injection, schedule: Q01DX Z (ip), vehicle: carboxymethylcellulose (CMC)) was 287 % of control, the T/C (endpoint: mean survival time, dose: 34.0 mg/kg/injection, schedule: Q01DX Z (ip), vehicle: carboxymethylcellulose (CMC)) was 239 % of control and 295 % of control and the T/C (endpoint: mean survival time, dose: 51.0 mg/kg/injection, schedule: Q01DX Z (ip), vehicle: carboxymethylcellulose (CMC)) was 209 % of control. For the same molecule, the T/C (endpoint: mean survival time, dose: 62.0 mg/kg/injection, schedule: Q01DX Z (oral), vehicle: carboxymethylcellulose (CMC)) was 104 % of control, the T/C (endpoint: mean survival time, dose: 68.0 mg/kg/injection, schedule: Q01DX Z (ip), vehicle: carboxymethylcellulose (CMC)) was 152 % of control and the T/C (endpoint: mean survival time, dose: 125.0 mg/kg/injection, schedule: Q01DX Z (oral), vehicle: carboxymethylcellulose (CMC)) was 105 % of control. For the same molecule, the T/C (endpoint: mean survival time, dose: 250.0 mg/kg/injection, schedule: Q01DX Z (oral), vehicle: carboxymethylcellulose (CMC)) was 102 % of control and the T/C (endpoint: mean survival time, dose: 500.0 mg/kg/injection, schedule: Q01DX Z (oral), vehicle: carboxymethylcellulose (CMC)) was 102 % of control.
With COC(=O)C[N+]12CN3CN(CN(C3)C1)C2 the T/C [3] was 98 % of control, the T/C [4] was 100 % of control and the T/C [5] was 107 % of control. The T/C [6] was 96 % of control, the T/C [7] was 107 % of control and the T/C [8] was 107 % of control. For the same molecule, the T/C (endpoint: mean survival time, dose: 400.0 mg/kg/injection, schedule: Q04DX003 (ip), vehicle: saline) was 108 % of control.
With CC(=O)Nc1nc(Cl)c2ncn(C3OC(COC(=O)c4ccccc4)CC3OC(=O)c3ccccc3)c2n1 (stereo not given) the T/C [3] was 93 % of control, the T/C [4] was 95 % of control and the T/C [6] was 101 % of control. For the same molecule, the T/C [8] was 93 % of control.
C=CCc1cccc(OC)c1OCCN(CC)CC was tested, and the T/C [1] was 111 % of control, the T/C [2] was 102 % of control and the T/C (endpoint: mean survival time, dose: 25.0 mg/kg/injection, schedule: Q01DX009 (ip), vehicle: saline) was 100 % of control.
For CCC(CC)(COC(C)=O)C[N+](C)(C)C, the T/C [4] was 103 % of control, the T/C [5] was 94 % of control and the T/C [6] was 95 % of control. For the same molecule, the T/C [7] was 102 % of control.
For CN1CCCN(C)C1c1ccc(Cl)cc1, the T/C (endpoint: mean survival time, dose: 6.25 mg/kg/injection, schedule: Q04DX003 (ip), vehicle: saline) was 99 % of control, the T/C (endpoint: mean survival time, dose: 12.5 mg/kg/injection, schedule: Q04DX003 (ip), vehicle: saline) was 99 % of control and the T/C (endpoint: mean survival time, dose: 25.0 mg/kg/injection, schedule: Q04DX003 (ip), vehicle: saline) was 91 % of control.
